Converted amounts (≈) assume the structure as drawn.
Tests used:
Format in all cases: cell-based
[1] = test system: S. aureus NB01080 fluoroquinolone-resistant clinical isolate; test: MIC by broth microdilution, S. aureus NB01080; conditions: Staphylococcus aureus, CAMHB, 35° C., 20 hours, read-out: Antibacterial activity (MIC) NB01080
Description: (§1) Bacterial isolates were cultivated from −80° C. frozen stocks by overnight passages at 35° C. in ambient air on Mueller-Hinton agar plates (MHA, Becton Dickinson, Franklin Lakes, NB) with the exception of S. pneumoniae which was grown overnight at 35° C. in the presence of 5% CO2 on blood agar plates (tryptic soy agar with 5% sheep blood (Thermo Scientific, Waltham, Mass.) . The following quality control and wild type strains were obtained from the American Type Culture Collection (ATCC; Rockville, Md.) and are coded in the Novartis strain collection as indicated: E. coli ATCC 25922 (NB27001), E. faecalis ATCC 29212 (NB04001), S. aureus ATCC 49951 (NB01006) and S. pneumoniae ATCC […] (NB07001). […] P. aeruginosa NB52019, obtained from Queen's University (Kingston, Ontario, Canada), is the wild-type PAO1 strain.
(§2) Minimal Inhibitory Concentrations (MIC) were determined by the broth microdilution method in accordance with Clinical and Laboratories Institute (CLSI) guidelines. In brief, fresh bacterial overnight cultures were re-suspended in sterile saline, adjusted to a 0.5 McFarland turbidity standard and then diluted to yield a final inoculum of approximately 5×10^5 colony-forming units (CFU)/mL. All bacterial suspensions were prepared in cation adjusted Mueller-Hinton Broth (CAMHB; Becton Dickinson, Franklin Lakes, N.J.;) with the exception of S. pneumoniae which was prepared in CAMHB supplemented with 5% lysed horse blood (Hardy Diagnostics, Santa Maria, Calif.). Two-fold serial dilutions of compounds were prepared in 100% dimethyl sulfoxide (DMSO) at 100-fold the highest final assay concentration; the resulting dilution series of compounds were diluted 1:10 with sterile water. Ten μL of the drug dilution series in 10% DMSO was transferred to microtiter wells and 90 μL of bacterial suspension was inoculated into the wells. All inoculated microdilution trays were incubated in ambient air at 35° C. for 20 hours. Following incubation, assay plates were read in a microtiter plate reader at 600 nm and visually inspected to confirm the MIC endpoint well with the OD value. The lowest concentration of the compound that prevented visible growth was recorded as the MIC (in μg/mL).

[2] = test system: S. aureus NB01006-AVR005, gyrA (S84L), grlA (580F) and grlB (E471K); test: microbe, parasite or virus in culture; conditions: Staphylococcus aureus, 20 h, read-out: Antibacterial activity (MIC) NB01006-AVR005
Description: as §1, §2

[3] = test system: S. aureus ATCC 49951 (NB01006); test: MIC by broth microdilution, S. aureus NB01006; conditions: Staphylococcus aureus, ATCC49951, CAMHB, 35° C., 20 hours, read-out: Antibacterial activity (MIC) NB01006
Description: as §1, §2

[4] = test system: E. coli ATCC 25922 (NB27001); test: MIC by broth microdilution, E. coli NB27001; conditions: Escherichia coli, ATCC25922, CAMHB, 35° C., 20 hours, read-out: Antibacterial activity (MIC) NB27001
Description: as §1, §2

[5] = test system: P. aeruginosa NB52019, wild-type PAO1 strain; test: MIC by broth microdilution, P. aeruginosa NB52019; conditions: Pseudomonas aeruginosa, CAMHB, 35° C., 20 hours, read-out: Antibacterial activity (MIC) NB52019
Description: as §1, §2

[6] = test system: E. faecalis ATCC 29212 (NB04001); test: MIC by broth microdilution, E. faecalis NB04001; conditions: Enterococcus faecalis, ATCC29212, CAMHB, 35° C., 20 hours, read-out: Antibacterial activity (MIC) NB04001
Description: as §1, §2

[7] = test system: S. pneumoniae ATCC 25922 (NB07001); test: MIC by broth microdilution, S. pneumoniae NB07001; conditions: Streptococcus pneumoniae, ATCC25922, 20 h, read-out: Antibacterial activity (MIC) NB07001
Description: as §1, §2

Compound	MIC [1]	MIC [2]	MIC [3]	MIC [4]	MIC [5]	MIC [6]	MIC [7]
C[C@H]1COc2c(N3CC4C(C3)C4N(C)C)c(F)cc3cc(C(=O)O)c(=O)n1c23 (mixture of isomers) [Example 1.69, (3S)-10-(6-(dimethylamino)-3-azabicyclo[3.1.0]hexan-3-yl)-9-fluoro-3-methyl-5-oxo-2,3-dihydro-5H-[1,4]oxazino[2,3,4-ij]quinoline-6-carboxylic acid]	> 32 µg/mL	> 32 µg/mL	1 to 32 µg/mL	> 32 µg/mL	> 32 µg/mL	> 32 µg/mL	1 to 32 µg/mL
C[C@H]1COc2c(N3CCCC4(CCN(C)C4)C3)c(F)cc3cc(C(=O)O)c(=O)n1c23 (mixture of isomers) [Example 1.70, (3S)-9-fluoro-3-methyl-10-(2-methyl-2,7-diazaspiro[4.5]decan-7-yl)-5-oxo-2,3-dihydro-5H-[1,4]oxazino[2,3,4-ij]quinoline-6-carboxylic acid]	> 32 µg/mL	> 32 µg/mL	1 to 32 µg/mL	> 32 µg/mL	> 32 µg/mL	> 32 µg/mL	1 to 32 µg/mL
C[C@H]1COc2c(N3CCCC4(CCNC4)C3)c(F)cc3cc(C(=O)O)c(=O)n1c23 (mixture of isomers) [Example 1.71, (3S)-9-fluoro-3-methyl-5-oxo-10-(2,7-diazaspiro[4.5]decan-7-yl)-2,3-dihydro-5H-[1,4]oxazino[2,3,4-ij]quinoline-6-carboxylic acid]	> 32 µg/mL	> 32 µg/mL	> 32 µg/mL	> 32 µg/mL	> 32 µg/mL	> 32 µg/mL	> 32 µg/mL
C[C@H]1COc2c(N3CC4CCC(N)C4C3)c(F)cc3cc(C(=O)O)c(=O)n1c23 (single isomer, unassigned) [Example 1.28]	> 32 µg/mL	> 32 µg/mL	1 to 32 µg/mL (≈ 2.58 to 82.6 µM)	> 32 µg/mL	> 32 µg/mL	1 to 32 µg/mL (≈ 2.58 to 82.6 µM)	< 1 µg/mL
C[C@H]1COc2c(N3CCC4CCNCC4C3)c(F)cc3cc(C(=O)O)c(=O)n1c23 (single isomer, unassigned) [Example 1.29]	> 32 µg/mL	> 32 µg/mL	> 32 µg/mL	> 32 µg/mL	> 32 µg/mL	> 32 µg/mL	> 32 µg/mL
C[C@H]1COc2c(N3CCC4(CCC4N)CC3)c(F)cc3cc(C(=O)O)c(=O)n1c23 (single isomer, unassigned) [Example 1.32]	> 32 µg/mL	> 32 µg/mL	1 to 32 µg/mL (≈ 2.49 to 79.7 µM)	> 32 µg/mL	> 32 µg/mL	1 to 32 µg/mL (≈ 2.49 to 79.7 µM)	1 to 32 µg/mL (≈ 2.49 to 79.7 µM)
C[C@H]1COc2c(N3CCC4(CC3)CC4N)c(F)cc3cc(C(=O)O)c(=O)n1c23 (single isomer, unassigned) [Example 1.33]	1 to 32 µg/mL (≈ 2.58 to 82.6 µM)	> 32 µg/mL	1 to 32 µg/mL (≈ 2.58 to 82.6 µM)	1 to 32 µg/mL (≈ 2.58 to 82.6 µM)	> 32 µg/mL	1 to 32 µg/mL (≈ 2.58 to 82.6 µM)	1 to 32 µg/mL (≈ 2.58 to 82.6 µM)
C[C@H]1COc2c(N3CC4CNC4C3)c(F)cc3cc(C(=O)O)c(=O)n1c23 (single isomer, unassigned) [Example 1.39]	> 32 µg/mL	> 32 µg/mL	> 32 µg/mL	> 32 µg/mL	> 32 µg/mL	> 32 µg/mL	> 32 µg/mL
C[C@H]1COc2c(N3CCC4(CC4N)C3)c(F)cc3cc(C(=O)O)c(=O)n1c23 (single isomer, unassigned) [Example 1.42]	1 to 32 µg/mL (≈ 2.68 to 85.7 µM)	1 to 32 µg/mL (≈ 2.68 to 85.7 µM)	< 1 µg/mL	< 1 µg/mL	1 to 32 µg/mL (≈ 2.68 to 85.7 µM)	1 to 32 µg/mL (≈ 2.68 to 85.7 µM)	< 1 µg/mL
C[C@H]1COc2c(N3CCC(C(C)(C)N)C3)c(F)cc3cc(C(=O)O)c(=O)n1c23 (single isomer, unassigned) [Example 1.43]	1 to 32 µg/mL (≈ 2.57 to 82.2 µM)	1 to 32 µg/mL (≈ 2.57 to 82.2 µM)	< 1 µg/mL	1 to 32 µg/mL (≈ 2.57 to 82.2 µM)	> 32 µg/mL	< 1 µg/mL	< 1 µg/mL
CCC(N)C1CCN(c2c(F)cc3cc(C(=O)O)c(=O)n4c3c2OC[C@@H]4C)C1 (single isomer, unassigned) [Example 1.45]	< 1 µg/mL	1 to 32 µg/mL (≈ 2.57 to 82.2 µM)	< 1 µg/mL	1 to 32 µg/mL (≈ 2.57 to 82.2 µM)	> 32 µg/mL	< 1 µg/mL	< 1 µg/mL
C[C@H]1COc2c(N3CCC(C4(N)CCC4)C3)c(F)cc3cc(C(=O)O)c(=O)n1c23 (single isomer, unassigned) [Example 1.46]	< 1 µg/mL	1 to 32 µg/mL (≈ 2.49 to 79.7 µM)	< 1 µg/mL	1 to 32 µg/mL (≈ 2.49 to 79.7 µM)	> 32 µg/mL	< 1 µg/mL	< 1 µg/mL
CC(N)C1(F)CCN(c2c(F)cc3cc(C(=O)O)c(=O)n4c3c2OC[C@@H]4C)C1 (single isomer, unassigned) [Example 1.47]	1 to 32 µg/mL (≈ 2.54 to 81.3 µM)	1 to 32 µg/mL (≈ 2.54 to 81.3 µM)	< 1 µg/mL	1 to 32 µg/mL (≈ 2.54 to 81.3 µM)	> 32 µg/mL	1 to 32 µg/mL (≈ 2.54 to 81.3 µM)	< 1 µg/mL
C[C@H]1COc2c(N3CC(CN)C4(CCOCC4)C3)c(F)cc3cc(C(=O)O)c(=O)n1c23 (single isomer, unassigned) [Example 1.48]	1 to 32 µg/mL (≈ 2.32 to 74.2 µM)	1 to 32 µg/mL (≈ 2.32 to 74.2 µM)	< 1 µg/mL	> 32 µg/mL	> 32 µg/mL	< 1 µg/mL	< 1 µg/mL
C[C@H]1COc2c(N3CC(CN)C4(CCC4)C3)c(F)cc3cc(C(=O)O)c(=O)n1c23 (single isomer, unassigned) [Example 1.49]	1 to 32 µg/mL (≈ 2.49 to 79.7 µM)	1 to 32 µg/mL (≈ 2.49 to 79.7 µM)	< 1 µg/mL	1 to 32 µg/mL (≈ 2.49 to 79.7 µM)	1 to 32 µg/mL (≈ 2.49 to 79.7 µM)	< 1 µg/mL	< 1 µg/mL
C[C@H]1COc2c(N3CC4CCCC4(CN)C3)c(F)cc3cc(C(=O)O)c(=O)n1c23 (single isomer, unassigned) [Example 1.50]	1 to 32 µg/mL (≈ 2.49 to 79.7 µM)	1 to 32 µg/mL (≈ 2.49 to 79.7 µM)	< 1 µg/mL	> 32 µg/mL	> 32 µg/mL	1 to 32 µg/mL (≈ 2.49 to 79.7 µM)	< 1 µg/mL
C[C@H]1COc2c(N3CC4CC(N)C4C3)c(F)cc3cc(C(=O)O)c(=O)n1c23 (single isomer, unassigned) [Example 1.62]	> 32 µg/mL	> 32 µg/mL	1 to 32 µg/mL (≈ 2.68 to 85.7 µM)	> 32 µg/mL	> 32 µg/mL	> 32 µg/mL	> 32 µg/mL

From US20180318311A1, “TRICYCLIC 2-QUINOLINONES AS ANTIBACTERIALS” (priority 2017, published 2018)
